Test results reported in paper PMC10359459 (Nucleic Acids Research, 2023).

Target: T1, BldD (Saccharopolyspora erythraea, UniProt A4FBF9)
T1 sequence (A4FBF9 1-162): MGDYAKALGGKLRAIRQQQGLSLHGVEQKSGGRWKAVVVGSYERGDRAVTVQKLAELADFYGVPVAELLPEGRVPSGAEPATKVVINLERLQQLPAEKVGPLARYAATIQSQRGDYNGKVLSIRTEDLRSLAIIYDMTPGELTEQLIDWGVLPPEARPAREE
Experiment: isothermal titration calorimetry
Assay type: binding

Kd: 570 nM
Compound: Nc1nc2c(ncn2[C@@H]2O[C@@H]3CO[P@](=O)(O)O[C@H]4[C@@H](O)[C@H](n5cnc6c(=O)[nH]c(N)nc65)O[C@@H]4CO[P@](=O)(O)O[C@H]3[C@H]2O)c(=O)[nH]1 [c-di-GMP]
